Assay in all cases: relative viability (nuclei count vs DMSO), 5 days (fraction); higher = more cells survive
Compound in assay [1]: CCn1c(-c2nonc2N)nc2cnc(Oc3cccc(NC(=O)c4ccc(OCCN5CCOCC5)cc4)c3)cc21 + CC(=O)c1c(C)c2cnc(Nc3ccc(N4CCNCC4)cn3)nc2n(C2CCCC2)c1=O [Palbociclib] (partner 0.5 µM)
A digest of the protocol:
(§1)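 Values are medians from duplicate plates. Each reflects relative viability, defined as the nuclei count of treated wells over that of vehicle wells. Lung cancer cell lines in 1536-well plates were pin-tool dosed one day after seeding with one drug alone or with a fixed anchor-drug dose plus five library-drug doses (not always all listed) in √10 steps, then fixed, stained and imaged at 4× after 5 days.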

Compound in assay [2]: CCC1=CN=CN=C1N2CCN(CC2)CC3=NC4=C(N3)C=C(C=C4)C(F)(F)F + Cc1nc(Nc2ncc(C(=O)Nc3c(C)cccc3Cl)s2)cc(N2CCN(CCO)CC2)n1 [Dasatinib] (partner 0.075 µM)
Put shortly: as §1

Compound in assay [3]: CCn1c(-c2nonc2N)nc2cnc(Oc3cccc(NC(=O)c4ccc(OCCN5CCOCC5)cc4)c3)cc21 + CC1(C)CCC(c2ccc(Cl)cc2)=C(CN2CCN(c3ccc(C(=O)NS(=O)(=O)c4ccc(N[C@H](CCN5CCOCC5)CSc5ccccc5)c(S(=O)(=O)C(F)(F)F)c4)cc3)CC2)C1 [Navitoclax] (partner 0.5 µM)
A digest of the protocol:
as §1

Compound in assay [4]: N=C1NC(=O)/C(=C/c2ccc(O)cc2)S1 [Mirin] + NC(=O)Nc1cc(-c2cccc(F)c2)sc1C(=O)N[C@H]1CCCNC1 [AZD7762] (partner 0.2 µM)
Put shortly: as §1

For 201T, the relative viability in assay [1] (first compound 0.04 µM) was 0.359; in assay [1] (first compound 0.1265 µM) it was 0.366; in assay [1] (first compound 0.4 µM) it was 0.368; in assay [1] (first compound 1.265 µM), 0.354; in assay [1] (first compound 4 µM), 0.345; in assay [2] (first compound 0.04 µM) it was 0.527. The relative viability is 0.565 in assay [2] (first compound 0.1265 µM); 0.559 in assay [2] (first compound 0.4 µM); 0.568 in assay [2] (first compound 1.265 µM); 0.541 in assay [2] (first compound 4 µM); 1.16 in assay [3] (first compound 0.04 µM); 1.19 in assay [3] (first compound 0.1265 µM). Besides, the relative viability in assay [3] (first compound 0.4 µM) is 1.18; in assay [3] (first compound 1.265 µM) it was 1.21; in assay [3] (first compound 4 µM) it was 1.14; in assay [4] (first compound 0.25 µM), 0.581; in assay [4] (first compound 0.7906 µM), 0.754; in assay [4] (first compound 2.5 µM), 0.673. Further, the relative viability in assay [4] (first compound 7.906 µM) turned out to be 0.441; in assay [4] (first compound 25 µM) it was 0.552.
For the cell line A549, the relative viability in assay [3] (first compound 0.04 µM) was determined as 1.37; in assay [3] (first compound 0.1265 µM), 1.08; in assay [3] (first compound 0.4 µM) it was 0.828; in assay [3] (first compound 1.265 µM) it was 0.0937; in assay [3] (first compound 4 µM), 0.0515.
A-427: the relative viability is 0.46 in assay [1] (first compound 0.04 µM); 0.495 in assay [1] (first compound 0.1265 µM); 0.412 in assay [1] (first compound 0.4 µM); 0.283 in assay [1] (first compound 1.265 µM); 0.275 in assay [1] (first compound 4 µM); 0.563 in assay [2] (first compound 0.04 µM). Besides, the relative viability worked out at 0.753 in assay [2] (first compound 0.1265 µM); 0.659 in assay [2] (first compound 0.4 µM); 0.614 in assay [2] (first compound 1.265 µM); 0.655 in assay [2] (first compound 4 µM); 1.04 in assay [3] (first compound 0.04 µM); 1.07 in assay [3] (first compound 0.1265 µM). Moreover, the relative viability came out at 0.887 in assay [3] (first compound 0.4 µM); 0.964 in assay [3] (first compound 1.265 µM); 1.01 in assay [3] (first compound 4 µM); 0.772 in assay [4] (first compound 0.25 µM); 0.879 in assay [4] (first compound 0.7906 µM); 0.701 in assay [4] (first compound 2.5 µM). Also, the relative viability stood at 0.737 in assay [4] (first compound 7.906 µM) and 0.636 in assay [4] (first compound 25 µM).
Turning to ABC-1, the relative viability was found to be 0.647 in assay [1] (first compound 0.04 µM); 0.941 in assay [1] (first compound 0.1265 µM); 0.635 in assay [1] (first compound 0.4 µM); 0.332 in assay [1] (first compound 1.265 µM); 0.393 in assay [1] (first compound 4 µM); 0.66 in assay [2] (first compound 0.04 µM). In addition, the relative viability in assay [2] (first compound 0.1265 µM) is 0.507; in assay [2] (first compound 0.4 µM), 0.614; in assay [2] (first compound 1.265 µM), 0.495; in assay [2] (first compound 4 µM), 0.449; in assay [4] (first compound 0.25 µM) it was 0.603; in assay [4] (first compound 0.7906 µM), 0.929. Further, the figures for the relative viability in assay [4] (first compound 2.5 µM), in assay [4] (first compound 7.906 µM) and in assay [4] (first compound 25 µM) were 0.628, 0.847 and 0.683, respectively.
As to BEN, the relative viability was 0.473 in assay [1] (first compound 0.04 µM); 0.469 in assay [1] (first compound 0.1265 µM); 0.472 in assay [1] (first compound 0.4 µM); 0.77 in assay [1] (first compound 1.265 µM); 0.441 in assay [1] (first compound 4 µM); 0.241 in assay [2] (first compound 0.04 µM). In addition, the relative viability was determined as 0.261 in assay [2] (first compound 0.1265 µM); 0.303 in assay [2] (first compound 0.4 µM); 0.335 in assay [2] (first compound 1.265 µM); 0.288 in assay [2] (first compound 4 µM); 0.0536 in assay [3] (first compound 0.04 µM); 0.0704 in assay [3] (first compound 0.1265 µM). For the same cell line, the relative viability was found to be 0.0589 in assay [3] (first compound 0.4 µM); 0.0468 in assay [3] (first compound 1.265 µM); 0.0489 in assay [3] (first compound 4 µM); 0.711 in assay [4] (first compound 0.25 µM); 0.711 in assay [4] (first compound 0.7906 µM); 0.735 in assay [4] (first compound 2.5 µM). Further, the values for the relative viability in assay [4] (first compound 7.906 µM) and in assay [4] (first compound 25 µM) were 0.574 and 0.494, respectively.
For the cell line CAL-12T, the relative viability in assay [1] (first compound 0.04 µM) stood at 0.778; in assay [1] (first compound 0.1265 µM), 0.619; in assay [1] (first compound 0.4 µM) it was 0.47; in assay [1] (first compound 1.265 µM), 0.345; in assay [1] (first compound 4 µM) it was 0.298; in assay [2] (first compound 0.04 µM), 0.336. Moreover, the relative viability in assay [2] (first compound 0.1265 µM) amounted to 0.352; in assay [2] (first compound 0.4 µM) it was 0.417; in assay [2] (first compound 1.265 µM), 0.518; in assay [2] (first compound 4 µM), 0.36; in assay [3] (first compound 0.04 µM) it was 1.83; in assay [3] (first compound 0.1265 µM) it was 1.46. The relative viability in assay [3] (first compound 0.4 µM) worked out at 1.61; in assay [3] (first compound 1.265 µM) it was 1.35; in assay [3] (first compound 4 µM), 0.955; in assay [4] (first compound 0.25 µM) it was 0.681; in assay [4] (first compound 0.7906 µM), 0.858; in assay [4] (first compound 2.5 µM), 0.633. The relative viability in assay [4] (first compound 7.906 µM) was 0.717; in assay [4] (first compound 25 µM), 0.831.
On to COR-L23, for which the relative viability in assay [1] (first compound 0.04 µM) was 0.308; in assay [1] (first compound 0.1265 µM), 0.25; in assay [1] (first compound 0.4 µM) it was 0.129; in assay [1] (first compound 1.265 µM), 0.173; in assay [1] (first compound 4 µM), 0.127; in assay [2] (first compound 0.04 µM), 0.536. The relative viability worked out at 0.477 in assay [2] (first compound 0.1265 µM); 0.502 in assay [2] (first compound 0.4 µM); 0.481 in assay [2] (first compound 1.265 µM); 0.484 in assay [2] (first compound 4 µM); 1.04 in assay [3] (first compound 0.04 µM); 0.817 in assay [3] (first compound 0.1265 µM). Besides, the relative viability in assay [3] (first compound 0.4 µM) amounted to 0.59; in assay [3] (first compound 1.265 µM), 0.172; in assay [3] (first compound 4 µM), 0.157.
On to COR-L 105, for which the relative viability was determined as 0.407 in assay [1] (first compound 0.04 µM); 0.402 in assay [1] (first compound 0.1265 µM); 0.344 in assay [1] (first compound 0.4 µM); 0.36 in assay [1] (first compound 1.265 µM); 0.336 in assay [1] (first compound 4 µM); 0.279 in assay [2] (first compound 0.04 µM). Moreover, the relative viability in assay [2] (first compound 0.1265 µM) was 0.316; in assay [2] (first compound 0.4 µM), 0.362; in assay [2] (first compound 1.265 µM), 0.399; in assay [2] (first compound 4 µM), 0.338; in assay [3] (first compound 0.04 µM) it was 0.618; in assay [3] (first compound 0.1265 µM), 0.762. Further, the relative viability worked out at 0.522 in assay [3] (first compound 0.4 µM), 0.262 in assay [3] (first compound 1.265 µM) and 0.355 in assay [3] (first compound 4 µM).

The record behind these values is the supplement of paper PMC10307832.
